ChEMBL document CHEMBL5518224, “Rational Design of PARP1/c-Met Dual Inhibitors for Overcoming PARP1 Inhibitor Resistance Induced by c-Met Overexpression” (J Med Chem, 2024)
Calls of active or inactive are those of the source. No cut-off for these calls is given here.

Legend:
[1] = target: T1, Hepatocyte growth factor receptor (Homo sapiens, UniProt P08581); experiment: Inhibition of c-Met (unknown origin) at 1 uM relative to control
[2] = target: Proto-oncogene tyrosine-protein kinase ROS (Homo sapiens) (UniProt P08922); experiment: Inhibition of ROS1 (unknown origin) at 1 uM relative to control
[3] = target: ALK tyrosine kinase receptor (Homo sapiens) (UniProt Q9UM73); experiment: Inhibition of ALK (unknown origin) at 1 uM relative to control
[4] = target: Poly [ADP-ribose] polymerase 1 (Homo sapiens, UniProt P09874); experiment: Binding affinity to PARP1 in human MDA-MB-231 cells assessed as thermal stabilization at 1 uM at 43 to 55 degreeC incubated for 12 hrs by CETSA; type: cell-based
[5] = target: T1, Hepatocyte growth factor receptor; experiment: Binding affinity to c-Met in human MDA-MB-231 cells assessed as thermal stabilization at 1 uM at 43 to 55 degreeC incubated for 12 hrs by CETSA; type: cell-based
MDA-MB-231 [6] = experiment: Effect on PARP1 protein expression in human MDA-MB-231 cells with H2O2-induced oxidative stress at 0.5 uM incubated for 72 hrs by Western blot analysis; type: functional, cell-based
MDA-MB-231 [7] = experiment: Effect on c-MET protein expression in human MDA-MB-231 cells with H2O2-induced oxidative stress at 0.5 uM incubated for 72 hrs by Western blot analysis; type: functional, cell-based
MDA-MB-231 [8] = experiment: Effect on PARP1 […] in human MDA-MB-231 cells with H2O2-induced oxidative stress at 0.5 uM by RT-qPCR analysis; type: functional, cell-based
MDA-MB-231 [9] = experiment: Effect on c-MET […] in human MDA-MB-231 cells with H2O2-induced oxidative stress at 0.5 uM by RT-qPCR analysis; type: functional, cell-based
MDA-MB-231 [10] = experiment: Downregulation of PAR protein level in human MDA-MB-231 cells with H2O2-induced oxidative stress at 0.5 uM incubated for 72 hrs by Western blot analysis; type: functional, cell-based
MDA-MB-231 [11] = experiment: Downregulation of PAR mRNA level in human MDA-MB-231 cells with H2O2-induced oxidative stress at 0.5 uM by RT-qPCR analysis; type: functional, cell-based
MDA-MB-231 [12] = experiment: Downregulation of phosphorylated c-MET protein level in human MDA-MB-231 cells with H2O2-induced oxidative stress at 0.5 uM incubated for 72 hrs by Western blot analysis; type: functional, cell-based
MDA-MB-231 [13] = experiment: Downregulation of phosphorylated c-MET mRNA level in human MDA-MB-231 cells with H2O2-induced oxidative stress at 0.5 uM by RT-qPCR analysis; type: functional, cell-based
MDA-MB-231 [14] = experiment: Downregulation of phosphorylated AKT level in human MDA-MB-231 cells with H2O2-induced oxidative stress at 0.5 uM incubated for 72 hrs by Western blot analysis; type: functional, cell-based
MDA-MB-231 [15] = experiment: Downregulation of phosphorylated AKT level in human MDA-MB-231 cells with H2O2-induced oxidative stress at 0.5 uM […]; type: functional, cell-based
MDA-MB-231 [16] = experiment: Induction of DNA damage in human MDA-MB-231 cells assessed as increase in gammaH2AX protein level at 0.5 uM incubated for 72 hrs by Western blot analysis; type: functional, cell-based
MDA-MB-231 [17] = experiment: Induction of DNA damage in human MDA-MB-231 cells assessed as increase in gammaH2AX […] analysis; type: functional, cell-based
MDA-MB-231 [18] = experiment: Induction of DNA damage in human MDA-MB-231 cells assessed as increase in tail DNA at 0.5 uM incubated for 72 hrs by comet assay; type: functional, cell-based
MDA-MB-231 [19] = experiment: Induction of DNA damage in human MDA-MB-231 cells assessed as increase in gammaH2AX expression at 0.5 to 1 uM incubated for 3 days by immunofluorescence based laser confocal microscopic analysis; type: functional, cell-based; conditions: dose 0.5-1 µM, time 3.0 day
MDA-MB-231 [20] = experiment: Inhibition of PARP1/c-Met protein-protein interaction in H2O2 stimulated human MDA-MB-231 cells at 0.5 uM incubated for 72 hrs by proximity ligation assay; type: cell-based
MDA-MB-231 [21] = experiment: Effect on homologous recombination in human MDA-MB-231 cells assessed as reduction in BRCA1 protein level by measuring disruption of BRCA1-BRCA2-Rad51 complex formation at 0.5 uM incubated for 72 hrs by Western blot analysis; type: functional, cell-based
MDA-MB-231 [22] = experiment: Effect on homologous recombination in human MDA-MB-231 cells assessed as reduction in BRCA1 mRNA level by measuring disruption of BRCA1-BRCA2-Rad51 complex formation at 0.5 uM by RT-qPCR analysis; type: functional, cell-based
MDA-MB-231 [23] = experiment: Effect on homologous recombination in human MDA-MB-231 cells assessed as reduction in Rad51 protein level by measuring disruption of BRCA1-BRCA2-Rad51 complex formation at 0.5 uM incubated for 72 hrs by Western blot analysis; type: functional, cell-based
MDA-MB-231 [24] = experiment: Effect on homologous recombination in human MDA-MB-231 cells assessed as reduction in Rad51 mRNA level by measuring disruption of BRCA1-BRCA2-Rad51 complex formation at 0.5 uM by RT-qPCR analysis; type: functional, cell-based
MDA-MB-231 [25] = experiment: Effect on BRCA2 protein level in human MDA-MB-231 cells at 0.5 uM incubated for 72 hrs by Western blot analysis; type: functional, cell-based
MDA-MB-231 [26] = experiment: Effect on BRCA2 mRNA level in human MDA-MB-231 cells at 0.5 uM by RT-qPCR analysis; type: functional, cell-based
MDA-MB-231 [27] = experiment: Effect on homologous recombination in human MDA-MB-231 cells assessed as reduction in Rad51 nuclear level at 0.5 to 1 uM incubated for 72 hrs by immunofluorescence analysis; type: functional, cell-based; conditions: dose 0.5-1 µM
MDA-MB-231 [28] = experiment: Effect on homologous recombination in human MDA-MB-231 cells assessed as reduction in BRCA2-Rad51 complex formation at 0.5 uM incubated for 72 hrs by proximity ligation assay; type: functional, cell-based
MDA-MB-231 [29] = experiment: Antiproliferative activity against human MDA-MB-231 cells assessed as inhibition of cell growth assessed as reduction in colony formation at 0.5 to 1 uM incubated for 14 days by crystal violet staining based microscopic analysis; type: functional; conditions: dose 0.5-1 µM, time 14.0 day
MDA-MB-231 [30] = experiment: Induction of G2/M phase cell cycle arrest in human MDA-MB-231 cells at 0.5 to 1 uM incubated for 4 days by PI staining based flow cytometry analysis; type: functional; conditions: dose 0.5-1 µM, time 4.0 day
MDA-MB-231 [31] = experiment: Antitumor activity against human MDA-MB-231 cells xenografted in female Balb/c nude mouse assessed as reduction in tumor weight at 12.5 to 50 mg/kg/day, ip qd administered for 28 days; type: functional, organism-based; conditions: dose 12.5-50 mg/kg/day, time 28.0 day
[32] = system: Olaparib-resistant HCT116; experiment: Antitumor activity against human Olaparib-resistant HCT116 cells xenografted in female Balb/c nude mouse assessed as reduction in tumor weight at 5 mg/kg/day, iv qd administered for 21 days; type: functional, organism-based; conditions: time 21.0 day
[33] = system: Olaparib-resistant HCT116; experiment: Antitumor activity against human Olaparib-resistant HCT116 cells xenografted in female Balb/c nude mouse assessed as reduction in tumor weight at 25 to 100 mg/kg/day, ip qd administered for 21 days; type: functional, organism-based; conditions: dose 25-100 mg/kg/day, time 21.0 day
MDA-MB-231 [34] = experiment: Antitumor activity against human MDA-MB-231 cells xenografted in female Balb/c nude mouse assessed as reduction in BRCA1 expression in tumor at 50 mg/kg/day, ip qd administered for 28 days by immunohistochemistry analysis; type: functional, organism-based; conditions: time 28.0 day
MDA-MB-231 [35] = experiment: Antitumor activity against human MDA-MB-231 cells xenografted in female Balb/c nude mouse assessed as reduction in Ki67 expression in tumor at 50 mg/kg/day, ip qd administered for 28 days by immunohistochemistry analysis; type: functional, organism-based; conditions: time 28.0 day
MDA-MB-231 [36] = experiment: Antitumor activity against human MDA-MB-231 cells xenografted in female Balb/c nude mouse assessed as induction of DNA damage by measuring increase in gammaH2AX expression in tumor at 50 mg/kg/day, ip qd administered for 28 days by immunohistochemistry analysis; type: functional, organism-based; conditions: time 28.0 day
MDA-MB-231 [37] = experiment: Antitumor activity against human MDA-MB-231 cells xenografted in female Balb/c nude mouse assessed as induction of apoptosis by measuring upregulation of cleaved caspase-3 expression in tumor at 50 mg/kg/day, ip qd administered for 28 days by immunohistochemistry analysis; type: functional, organism-based; conditions: time 28.0 day

T1 sequence (P08581 whole entry): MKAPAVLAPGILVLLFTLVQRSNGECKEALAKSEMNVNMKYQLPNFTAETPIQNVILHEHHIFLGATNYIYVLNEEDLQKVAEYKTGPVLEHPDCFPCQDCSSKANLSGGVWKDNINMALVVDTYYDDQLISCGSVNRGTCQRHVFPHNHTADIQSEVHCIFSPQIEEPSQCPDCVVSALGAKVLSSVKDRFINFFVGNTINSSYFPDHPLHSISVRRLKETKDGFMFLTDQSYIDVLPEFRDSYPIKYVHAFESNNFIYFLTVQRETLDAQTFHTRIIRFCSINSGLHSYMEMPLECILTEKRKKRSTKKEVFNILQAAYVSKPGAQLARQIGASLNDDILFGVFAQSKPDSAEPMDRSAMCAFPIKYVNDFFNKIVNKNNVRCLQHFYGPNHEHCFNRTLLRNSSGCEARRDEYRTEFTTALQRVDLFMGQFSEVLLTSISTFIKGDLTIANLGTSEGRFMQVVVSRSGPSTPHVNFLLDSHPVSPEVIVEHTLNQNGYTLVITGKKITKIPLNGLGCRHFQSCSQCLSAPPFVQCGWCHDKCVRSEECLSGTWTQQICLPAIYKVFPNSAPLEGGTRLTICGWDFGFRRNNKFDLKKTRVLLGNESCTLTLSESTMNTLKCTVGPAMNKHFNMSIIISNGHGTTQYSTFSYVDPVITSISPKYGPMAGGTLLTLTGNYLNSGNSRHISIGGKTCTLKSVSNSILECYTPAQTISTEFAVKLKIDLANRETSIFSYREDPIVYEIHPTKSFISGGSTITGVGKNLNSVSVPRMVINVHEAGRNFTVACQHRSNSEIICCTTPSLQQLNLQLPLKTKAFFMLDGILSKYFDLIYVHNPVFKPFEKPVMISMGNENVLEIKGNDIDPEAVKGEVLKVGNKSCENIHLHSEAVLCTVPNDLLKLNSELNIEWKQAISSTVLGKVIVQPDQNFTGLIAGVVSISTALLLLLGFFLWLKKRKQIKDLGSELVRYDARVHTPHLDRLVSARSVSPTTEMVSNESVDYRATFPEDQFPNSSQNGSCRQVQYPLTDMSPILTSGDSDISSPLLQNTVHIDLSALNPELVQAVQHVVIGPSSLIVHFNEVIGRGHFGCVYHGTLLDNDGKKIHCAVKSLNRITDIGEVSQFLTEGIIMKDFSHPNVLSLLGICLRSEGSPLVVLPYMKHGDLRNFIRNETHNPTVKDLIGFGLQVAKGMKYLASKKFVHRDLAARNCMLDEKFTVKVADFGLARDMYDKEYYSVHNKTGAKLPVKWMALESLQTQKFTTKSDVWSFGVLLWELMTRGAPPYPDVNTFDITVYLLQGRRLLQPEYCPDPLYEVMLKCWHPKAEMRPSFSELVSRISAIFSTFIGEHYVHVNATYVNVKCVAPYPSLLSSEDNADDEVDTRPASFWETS
ALK tyrosine kinase receptor (Homo sapiens), sequence (Q9UM73 19-1620 limits assumed): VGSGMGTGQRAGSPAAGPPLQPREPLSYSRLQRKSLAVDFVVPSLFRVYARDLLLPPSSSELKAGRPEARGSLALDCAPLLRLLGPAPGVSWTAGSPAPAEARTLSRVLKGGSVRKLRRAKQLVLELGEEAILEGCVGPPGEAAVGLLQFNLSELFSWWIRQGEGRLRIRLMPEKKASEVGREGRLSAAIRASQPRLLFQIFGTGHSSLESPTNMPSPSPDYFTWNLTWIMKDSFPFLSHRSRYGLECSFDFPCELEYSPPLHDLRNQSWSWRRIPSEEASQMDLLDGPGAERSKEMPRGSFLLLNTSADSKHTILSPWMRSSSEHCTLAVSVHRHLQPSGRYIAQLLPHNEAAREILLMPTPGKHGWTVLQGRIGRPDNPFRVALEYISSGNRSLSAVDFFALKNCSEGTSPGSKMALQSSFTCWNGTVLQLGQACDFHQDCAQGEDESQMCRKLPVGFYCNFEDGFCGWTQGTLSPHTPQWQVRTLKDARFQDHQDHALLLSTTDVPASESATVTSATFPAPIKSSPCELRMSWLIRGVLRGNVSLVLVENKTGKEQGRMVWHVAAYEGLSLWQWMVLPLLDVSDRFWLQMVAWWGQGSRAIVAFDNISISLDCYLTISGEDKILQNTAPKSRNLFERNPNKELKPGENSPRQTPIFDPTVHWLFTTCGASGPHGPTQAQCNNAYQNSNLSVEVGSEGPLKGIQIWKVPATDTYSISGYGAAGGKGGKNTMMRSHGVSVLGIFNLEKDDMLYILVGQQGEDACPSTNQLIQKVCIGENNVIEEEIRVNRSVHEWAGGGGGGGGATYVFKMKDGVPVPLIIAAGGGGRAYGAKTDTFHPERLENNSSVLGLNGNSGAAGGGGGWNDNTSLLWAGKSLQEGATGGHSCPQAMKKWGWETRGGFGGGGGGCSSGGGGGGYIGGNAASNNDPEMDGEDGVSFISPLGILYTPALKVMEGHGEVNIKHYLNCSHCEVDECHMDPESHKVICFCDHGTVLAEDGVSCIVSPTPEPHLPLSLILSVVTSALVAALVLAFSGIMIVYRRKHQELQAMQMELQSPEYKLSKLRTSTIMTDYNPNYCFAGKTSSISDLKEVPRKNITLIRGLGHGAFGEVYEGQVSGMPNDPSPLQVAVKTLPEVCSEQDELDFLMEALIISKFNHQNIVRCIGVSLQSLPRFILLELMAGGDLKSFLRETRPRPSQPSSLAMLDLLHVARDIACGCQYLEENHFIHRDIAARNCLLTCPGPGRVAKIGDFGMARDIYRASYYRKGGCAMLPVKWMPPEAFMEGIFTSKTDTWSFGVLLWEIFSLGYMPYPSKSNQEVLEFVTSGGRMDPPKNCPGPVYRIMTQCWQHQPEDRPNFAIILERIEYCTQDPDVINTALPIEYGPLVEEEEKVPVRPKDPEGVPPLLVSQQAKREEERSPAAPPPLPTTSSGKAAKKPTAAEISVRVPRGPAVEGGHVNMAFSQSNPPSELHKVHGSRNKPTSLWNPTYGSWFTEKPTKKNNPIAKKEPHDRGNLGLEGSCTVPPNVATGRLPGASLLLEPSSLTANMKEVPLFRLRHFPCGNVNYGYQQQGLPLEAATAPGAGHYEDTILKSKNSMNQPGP
Poly [ADP-ribose] polymerase 1, sequence (P09874 whole entry): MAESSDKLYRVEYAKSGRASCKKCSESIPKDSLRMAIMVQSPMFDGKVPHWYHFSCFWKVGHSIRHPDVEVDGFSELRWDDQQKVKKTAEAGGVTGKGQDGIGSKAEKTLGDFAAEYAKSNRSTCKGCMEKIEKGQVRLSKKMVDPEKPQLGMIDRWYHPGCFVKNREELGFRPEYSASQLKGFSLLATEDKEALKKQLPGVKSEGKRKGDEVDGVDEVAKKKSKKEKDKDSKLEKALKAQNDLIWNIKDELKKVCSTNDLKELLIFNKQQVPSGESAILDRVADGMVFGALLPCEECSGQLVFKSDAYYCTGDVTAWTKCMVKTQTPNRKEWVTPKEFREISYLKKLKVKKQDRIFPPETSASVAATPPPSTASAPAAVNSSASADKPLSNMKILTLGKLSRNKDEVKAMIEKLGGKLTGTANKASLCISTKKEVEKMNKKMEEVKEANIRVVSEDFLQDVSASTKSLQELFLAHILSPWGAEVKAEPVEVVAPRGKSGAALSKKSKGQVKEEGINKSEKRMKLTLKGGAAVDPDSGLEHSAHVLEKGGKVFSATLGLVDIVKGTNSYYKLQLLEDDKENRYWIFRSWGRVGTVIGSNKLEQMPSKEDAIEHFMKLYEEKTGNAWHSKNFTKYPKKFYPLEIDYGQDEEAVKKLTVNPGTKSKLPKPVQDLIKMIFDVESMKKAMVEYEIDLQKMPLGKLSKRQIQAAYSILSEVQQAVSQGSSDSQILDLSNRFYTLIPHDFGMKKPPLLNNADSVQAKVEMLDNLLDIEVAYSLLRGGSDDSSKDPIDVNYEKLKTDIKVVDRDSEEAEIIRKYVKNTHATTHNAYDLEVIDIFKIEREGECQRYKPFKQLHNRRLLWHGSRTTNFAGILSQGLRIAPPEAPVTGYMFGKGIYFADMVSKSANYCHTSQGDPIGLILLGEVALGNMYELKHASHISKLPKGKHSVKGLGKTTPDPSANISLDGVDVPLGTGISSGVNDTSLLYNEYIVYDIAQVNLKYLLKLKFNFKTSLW

## O=C(c1cc(Cc2n[nH]c(=O)c3ccccc23)ccc1F)N1CCN(c2ccc3c(OCCn4nc(-c5cccnc5)ccc4=O)ccnc3c2)CC1
[1]
  inhibition: 98.3%
[2]
  inhibition: 63%
[3]
  inhibition: 60.3%
[4]
  Activity: Active
[5]
  Activity: Active
MDA-MB-231 [6]
  Activity: inactive
MDA-MB-231 [7]
  Activity: inactive
MDA-MB-231 [8]
  Activity: inactive
MDA-MB-231 [9]
  Activity: inactive
MDA-MB-231 [10]
  Activity: Active
MDA-MB-231 [11]
  Activity: Active
MDA-MB-231 [12]
  Activity: Active
MDA-MB-231 [13]
  Activity: Active
MDA-MB-231 [14]
  Activity: Active
MDA-MB-231 [15]
  Activity: Active
MDA-MB-231 [16]
  Activity: Active
MDA-MB-231 [17]
  Activity: Active
MDA-MB-231 [18]
  Activity: Active
MDA-MB-231 [19]
  Activity: Active
MDA-MB-231 [20]
  inhibition: Active
MDA-MB-231 [21]
  Activity: Active
MDA-MB-231 [22]
  Activity: Active
MDA-MB-231 [23]
  Activity: Active
MDA-MB-231 [24]
  Activity: Active
MDA-MB-231 [25]
  Activity: inactive
MDA-MB-231 [26]
  Activity: inactive
MDA-MB-231 [27]
  Activity: Active
MDA-MB-231 [28]
  Activity: Active
MDA-MB-231 [29]
  Activity: Active
MDA-MB-231 [30]
  Activity: Active
MDA-MB-231 [31]
  Activity: Active
[32]
  Activity: Active
[33]
  Activity: Active
MDA-MB-231 [34]
  Activity: Active
MDA-MB-231 [35]
  Activity: Active
MDA-MB-231 [36]
  Activity: Active
MDA-MB-231 [37]
  Activity: Active
